Data on 17 compounds can be found in patent US9765067B2, “Thiophen-2-yl-pyridin-2-yl-1H-pyrazole-4-carboxylic acid derivatives and the use thereof as soluble guanylate cyclase activators” (Novartis AG, priority 2014, dated 2017).

The target in the assay is T1, soluble guanylate cyclase (human GUCYA3/GUCYB3) overexpressed in CHO cells (Homo sapiens, UniProt Q02108+Q02153).
T1 construct: expressed in transfected cells
T1 sequence (Q02108 1-690 partner): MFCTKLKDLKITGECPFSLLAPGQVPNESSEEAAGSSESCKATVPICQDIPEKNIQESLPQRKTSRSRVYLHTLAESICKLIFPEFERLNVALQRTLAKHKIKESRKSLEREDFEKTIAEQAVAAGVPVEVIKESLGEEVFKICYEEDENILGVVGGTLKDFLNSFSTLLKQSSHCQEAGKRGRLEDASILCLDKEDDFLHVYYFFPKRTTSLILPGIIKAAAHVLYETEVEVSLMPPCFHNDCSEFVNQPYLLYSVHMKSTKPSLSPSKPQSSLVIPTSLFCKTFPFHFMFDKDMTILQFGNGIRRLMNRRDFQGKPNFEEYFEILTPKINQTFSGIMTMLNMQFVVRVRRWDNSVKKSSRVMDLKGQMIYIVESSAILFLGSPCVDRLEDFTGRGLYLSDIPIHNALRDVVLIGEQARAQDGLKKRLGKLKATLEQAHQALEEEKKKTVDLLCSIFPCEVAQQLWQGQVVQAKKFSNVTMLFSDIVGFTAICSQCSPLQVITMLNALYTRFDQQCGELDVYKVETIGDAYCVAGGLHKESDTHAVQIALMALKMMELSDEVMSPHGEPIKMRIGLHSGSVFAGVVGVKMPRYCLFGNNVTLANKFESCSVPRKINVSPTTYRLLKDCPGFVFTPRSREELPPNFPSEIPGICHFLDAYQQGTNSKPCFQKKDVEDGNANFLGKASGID
T1 sequence (Q02153 1-619): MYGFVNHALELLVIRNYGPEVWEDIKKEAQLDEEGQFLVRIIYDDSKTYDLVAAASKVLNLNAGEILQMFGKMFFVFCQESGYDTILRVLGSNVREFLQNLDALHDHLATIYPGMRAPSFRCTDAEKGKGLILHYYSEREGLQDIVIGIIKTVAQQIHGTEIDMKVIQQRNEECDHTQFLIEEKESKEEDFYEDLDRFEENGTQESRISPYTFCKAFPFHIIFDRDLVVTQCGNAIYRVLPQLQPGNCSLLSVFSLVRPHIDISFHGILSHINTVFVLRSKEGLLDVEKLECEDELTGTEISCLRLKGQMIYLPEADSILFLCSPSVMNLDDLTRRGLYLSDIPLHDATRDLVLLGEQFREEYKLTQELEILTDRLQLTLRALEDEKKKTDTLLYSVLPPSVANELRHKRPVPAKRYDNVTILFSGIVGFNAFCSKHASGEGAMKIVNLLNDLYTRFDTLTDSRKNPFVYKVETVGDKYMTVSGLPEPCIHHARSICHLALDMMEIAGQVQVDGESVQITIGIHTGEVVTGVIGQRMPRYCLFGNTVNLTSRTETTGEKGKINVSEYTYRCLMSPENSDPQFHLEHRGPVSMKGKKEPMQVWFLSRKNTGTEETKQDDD
Put plainly: CHO cellular assay (cGMP production, HTRF). In kind it is cell-based. The conditions noted are these: CHO K1 clone 8E10 overexpressing human sGC, Cisbio HTRF, 1 h room temperature, 1 mM IBMX, 20 uM ODQ, minimum quantification limit 0.5 nM. In short, it runs like this:
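Stable CHO K1 clone expressing human GUCYA3/GUCYB3. Compounds applied 1 h at room temperature in HBSS, 0.1% BSA, 1 mM IBMX, 20 uM ODQ, 0.5% DMSO. cGMP measured by HTRF and interpolated from a standard curve; EC50 from 4-parameter sigmoidal fit.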
In general terms: TR-FRET usually uses a lanthanide donor and a delayed reading to cut background.

As a reminder, the EC50 is the concentration giving half of the maximal effect. On to `CCC(=O)N1CCC(c2ccc(OCc3ccsc3-c3cccc(-n4ncc(C(=O)O)c4C(F)(F)F)n3)c(C(F)(F)F)c2)CC1` [Example 33-2, (6-(3-((4-(1-Propionylpiperidin-4-yl)-2-(trifluoromethyl)phenoxy)methyl)thiophen-2-yl)pyridin-2-yl)-5-(trifluoromethyl)-1H-pyrazole-4-carboxylic acid], for which the EC50 came out at 15 nM. Under `Cc1cc(C2CCN(C(=O)C3CC3)CC2)ccc1OCc1cc(C(C)C)sc1-c1cccc(-n2ncc(C(=O)O)c2C(F)(F)F)n1` [Example 35-1, 1-(6-(3-((4-(1-(Cyclopropanecarbonyl)piperidin-4-yl)-2-methylphenoxy)methyl)-5-isopropylthiophen-2-yl)pyridin-2-yl)-5-(trifluoromethyl)-1H-pyrazole-4-carboxylic acid] stands 96 nM; under `CCC(=O)N1CCC(c2ccc(OCc3cc(C(C)C)sc3-c3cccc(-n4ncc(C(=O)O)c4C(F)(F)F)n3)c(C)c2)CC1` [Example 35-2, 1-(6-(5-Isopropyl-3-((2-methyl-4-(1-propionylpiperidin-4-yl)phenoxy)methyl)thiophen-2-yl)pyridin-2-yl)-5-(trifluoromethyl)-1H-pyrazole-4-carboxylic acid], 678 nM. With `CCCc1cc(COc2ccc(C3CCN(C(=O)CC)CC3)cc2C)c(-c2cccc(-n3ncc(C(=O)O)c3C(F)(F)F)n2)s1` [Example 35-3, 1-(6-(3-((2-Methyl-4-(1-propionylpiperidin-4-yl)phenoxy)methyl)-5-propylthiophen-2-yl)pyridin-2-yl)-5-(trifluoromethyl)-1H-pyrazole-4-carboxylic acid], the concentration for a half-maximal effect (EC50) came out at 195 nM. `Cc1cc(COc2ccc(C3CCN(C(=O)C4CC4)CC3)c(C)c2)c(-c2cccc(-n3ncc(C(=O)O)c3C(F)(F)F)n2)s1` [Example 35-4, 1-(6-(3-((4-(1-(Cyclopropanecarbonyl)piperidin-4-yl)-3-methylphenoxy)methyl)-5-methylthiophen-2-yl)pyridin-2-yl)-5-(trifluoromethyl)-1H-pyrazole-4-carboxylic acid]: a half-maximal effect (EC50) was put at 2 nM. Turning to `Cc1cc(OCc2ccsc2-c2cccc(-n3ncc(C(=O)O)c3C(F)(F)F)n2)ccc1C1CCN(C(=O)C2CC2)CC1` [Example 35-5, 1-(6-(3-((4-(1-(Cyclopropanecarbonyl)piperidin-4-yl)-3-methylphenoxy)methyl)thiophen-2-yl)pyridin-2-yl)-5-(trifluoromethyl)-1H-pyrazole-4-carboxylic acid], the midpoint of the response, the EC50, lay at 3 nM. Under `CCc1cc(OCc2cc(C)sc2-c2cccc(-n3ncc(C(=O)O)c3C(F)(F)F)n2)ccc1C1CCN(C(=O)N(C)C)CC1` [Example 35-7, 1-(6-(3-((4-(1-(Dimethylcarbamoyl)piperidin-4-yl)-3-ethylphenoxy)methyl)-5-methylthiophen-2-yl)pyridin-2-yl)-5-(trifluoromethyl)-1H-pyrazole-4-carboxylic acid] stands at most 0.5 nM.

Consider `CCc1cc(OCc2cc(C)sc2-c2cccc(-n3ncc(C(=O)O)c3C)n2)ccc1C1CCN(C(=O)N(C)C)CC1` [Example 35-8, 1-(6-(3-((4-(1-(Dimethylcarbamoyl)piperidin-4-yl)-3-ethylphenoxy)methyl)-5-methylthiophen-2-yl)pyridin-2-yl)-5-methyl-1H-pyrazole-4-carboxylic acid], for which the EC50 was at most 0.5 nM.

Regarding `CCc1cc(OCc2cc(C)sc2-c2cccc(-n3ncc(C(=O)O)c3CC)n2)ccc1C1CCN(C(=O)C2CC2)CC1` [Example 35-9, 1-(6-(3-((4-(1-(Cyclopropanecarbonyl)piperidin-4-yl)-3-ethylphenoxy)methyl)-5-methylthiophen-2-yl)pyridin-2-yl)-5-ethyl-1H-pyrazole-4-carboxylic acid], the half-maximal effective concentration (EC50) was at most 0.5 nM. Regarding `CCc1c(C(=O)O)cnn1-c1cccc(-c2sc(C)cc2COc2ccc(C3CCN(C(=O)C4CC4)CC3)cc2C)n1` [Example 35-10, 1-(6-(3-((4-(1-(Cyclopropanecarbonyl)piperidin-4-yl)-2-methylphenoxy)methyl)-5-methylthiophen-2-yl)pyridin-2-yl)-5-ethyl-1H-pyrazole-4-carboxylic acid], the EC50 was at most 0.5 nM. Consider `Cc1cc(COc2ccc(C3CCN(C(=O)C4CC4)CC3)c(C3CC3)c2)c(-c2cccc(-n3ncc(C(=O)O)c3C(F)(F)F)n2)s1` [Example 35-12, 1-(6-(3-((4-(1-(Cyclopropanecarbonyl)piperidin-4-yl)-3-cyclopropylphenoxy)methyl)-5-methylthiophen-2-yl)pyridin-2-yl)-5-(trifluoromethyl)-1H-pyrazole-4-carboxylic acid], for which the EC50 is 1 nM. The compound `CCc1c(C2CCN(C(=O)C3CC3)CC2)ccc(OCc2cc(C)sc2-c2cccc(-n3ncc(C(=O)O)c3C(F)(F)F)n2)c1F` [Example 35-13, 1-(6-(3-((4-(1-(Cyclopropanecarbonyl)piperidin-4-y1)-3-ethyl-2-fluorophenoxy)methyl)-5-methylthiophen-2-yl)pyridin-2-yl)-5-(trifluoromethyl)-1H-pyrazole-4-carboxylic acid] returned an EC50 of 1 nM. `CCc1cc(OCc2cc(C)sc2-c2cccc(-n3ncc(C(=O)O)c3C(F)(F)F)n2)cnc1C1CCN(C(=O)C2CC2)CC1` [Example 35-14, 1-(6-(3-(((6-(1-(Cyclopropanecarbonyl)piperidin-4-yl)-5-ethylpyridin-3-yl)oxy)methyl)-5-methylthiophen-2-yl)pyridin-2-yl)-5-(trifluoromethyl)-1H-pyrazole-4-carboxylic acid] showed an EC50 of 15 nM. The compound `CCCc1cc(OCc2cc(C)sc2-c2cccc(-n3ncc(C(=O)O)c3C(F)(F)F)n2)ccc1C1CCN(C(=O)C2CC2)CC1` [Example 35-15, 1-(6-(3-((4-(1-(Cyclopropanecarbonyl)piperidin-4-yl)-3-propylphenoxy)methyl)-5-methylthiophen-2-yl)pyridin-2-yl)-5-(trifluoromethyl)-1H-pyrazole-4-carboxylic acid] gave an EC50 of 1.4 nM. `Cc1cc(C2CCN(C(=O)C3CC3)CC2)ccc1NC(C)c1ccsc1-c1cccc(-n2ncc(C(=O)O)c2C(F)(F)F)c1` (centres unmarked) [Example 36, 1-(3-(3-(1-((4-(1-(Cyclopropanecarbonyl)piperidin-4-yl)-2-methylphenyl)amino)ethyl)thiophen-2-yl)phenyl)-5-(trifluoromethyl)-1H-pyrazole-4-carboxylic acid] yielded a concentration giving a half-maximal response (EC50) of 15 nM.

On to `CCc1cc(NCc2cc(C)sc2-c2cccc(-n3ncc(C(=O)O)c3CC)n2)ccc1C1CCN(C(=O)C2CC2)CC1` [Example 37, 1-(6-(3-(((4-(1-(Cyclopropanecarbonyl)piperidin-4-yl)-3-ethylphenyl)amino)methyl)-5-methylthiophen-2-yl)pyridin-2-yl)-5-ethyl-1H-pyrazole-4-carboxylic acid], for which the EC50 is at most 0.5 nM.

In turn, `CCc1cc(NCc2c(C(F)(F)F)csc2-c2cccc(-n3ncc(C(=O)O)c3CC)n2)ccc1C1CCN(C(=O)C2CC2)CC1` [Example 38, 1-(6-(3-(((4-(1-(Cyclopropanecarbonyl)piperidin-4-yl)-3-ethylphenyl)amino)methyl)-4-(trifluoromethyl)thiophen-2-yl)pyridin-2-yl)-5-ethyl-1H-pyrazole-4-carboxylic acid] gave an EC50 of at most 0.5 nM.
